Activity calls are given as the source filed them. The rule behind the calls is not given here.
Molecular target: Serine/threonine-protein kinase mTOR (Homo sapiens) (UniProt P42345)
Experiment: binders of mTOR FRB domain, biophysical, NMR (AID 1648)
Details: NMR binding to FRB domain, chemical shift

Sequence of Serine/threonine-protein kinase mTOR (Homo sapiens) (P42345 2015-2114): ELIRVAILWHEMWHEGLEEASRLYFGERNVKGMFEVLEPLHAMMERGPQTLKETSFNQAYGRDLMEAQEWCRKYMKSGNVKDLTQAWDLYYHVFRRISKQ

Row | Compound | Kd
1 | CC1=C(CCC(=O)O)c2cc3nc(cc4[nH]c(cc5[nH]c(cc1n2)c(C)c5C(C)O)c(C)c4C(C)O)C(C)=C3CCC(=O)O (centres undefined) | > 4 mM (inactive)
2 | O=C1CCCC(=O)N1c1ccc(O)cc1 | > 4 mM (inactive)
3 | NC(=O)Cc1nc(-c2ccc(F)cc2)cs1 | > 4 mM (inactive)
4 | Cc1ccc(-n2nnnc2SCC(N)=O)c(C)c1 | > 4 mM (inactive)
5 | CC12CN(CC#N)CC(C)(CN(CC#N)C1)C2=O | > 4 mM (inactive)
6 | Clc1ccccc1OCc1nc(-c2ccccn2)no1 | > 4 mM (inactive)
7 | CN1CCC(NC(=O)c2cnccn2)CC1 | > 4 mM (inactive)
8 | CC(=O)OC1CC[C@@]2(C)C(CCC3C2CC[C@]2(C)C(C4=CC(=O)OC4)C(OC(C)=O)CC32O)C1 (some centres undefined) | > 4 mM (inactive)
9 | Cc1cc(OC(=O)c2ccco2)c([N+](=O)[O-])c(=O)[nH]1 | > 4 mM (inactive)
10 | NS(=O)(=O)c1ccc2c(c1)OCCO2 | > 4 mM (inactive)
11 | CN=C(c1ccc([N+](=O)[O-])cc1)N(C)C | > 4 mM (inactive)
12 | CC1(C)C(=O)[C@@H]2O[C@@H]2[C@@]2(C)C1C[C@@H](O)[C@]1(C)C2CC[C@@]2(C)[C@H](c3ccoc3)OC(=O)C3OC321 (some centres undefined) | > 4 mM (inactive)
13 | CC(=O)N1CCN(c2ccc(N)cc2)CC1 | > 4 mM (inactive)
14 | O=S1(=O)NC(=NCc2ccccc2)c2ccccc21 | > 4 mM (inactive)
15 | Cc1cc(NC(=O)CS(=O)(=O)c2ccccc2)no1 | > 4 mM (inactive)
16 | CC(=O)Nn1c(=O)[nH]c2ccccc2c1=O | > 4 mM (inactive)
17 | Nc1nc(-c2ccc(Cl)cc2)nn1C(=O)c1cccnc1 | > 4 mM (inactive)
18 | O=C1CCCc2c(O)cccc21 | > 4 mM (inactive)
19 | O=c1[nH]c(=O)n(-c2ccc(F)cc2)c(O)c1/C=C1/C=CC=N1 | > 4 mM (inactive)
20 | CCN1C(=O)c2cccc3c(S(N)(=O)=O)ccc1c23 | > 4 mM (inactive)
21 | Cc1ccc(NC(=O)C(=O)Nc2ccccn2)cc1 | > 4 mM (inactive)
22 | OCc1ccc(Oc2ccccc2)nc1 | > 4 mM (inactive)
23 | Cc1nc(-c2ccc(CO)s2)cs1 | > 4 mM (inactive)

Row | Compound | Kd
24 | O=C(NCO)c1ccc([N+](=O)[O-])cc1 | > 4 mM (inactive)
25 | C[C@@H]1O[C@@H](O[C@H]2C[C@@H](O)[C@]3(CO)C4C(CC[C@]3(O)C2)[C@@]2(O)CC[C@H](C3=CC(=O)OC3)[C@@]2(C)C[C@H]4O)[C@H](O)[C@H](O)[C@H]1O (some centres undefined) | > 4 mM (inactive)
26 | NCc1csc2ccccc12 | > 4 mM (inactive)
27 | CCC(C)C(=O)O[C@@H]1C[C@@]2(C)[C@H](c3ccoc3)OC(=O)CC23OC2(C)O[C@]14[C@]1(C)[C@@H](CC(=O)OC)C5(C)CC1(O)[C@](O)(C5OC(=O)C1(C)OC1C)[C@@H](OC(C)=O)[C@]34O2 (some centres undefined) | > 4 mM (inactive)
28 | NC(=O)c1ccccc1NC(=O)c1cccnc1 | > 4 mM (inactive)
29 | Cn1c(=O)cc(O)c2ccccc21 | > 4 mM (inactive)
30 | O=C(CSc1ccccc1)N1CCC2(CC1)OCCO2 | > 4 mM (inactive)
31 | CC(=O)Nc1ccc(-c2nc(C)c(C(C)=O)n2O)cc1 | > 4 mM (inactive)
32 | Nc1ccc2c(c1)CCC2=O | > 4 mM (inactive)
33 | O=C(NCO)c1ccccc1Cl | > 4 mM (inactive)
34 | Nc1ncnc2c1ncn2C1O[C@H](COP(=O)(O)O)[C@@H](O)[C@H]1O (some centres undefined) | > 4 mM (inactive)
35 | O=C1CNCc2[nH]c3ccccc3c2N1c1ccccc1 | > 4 mM (inactive)
36 | CC1=C(/C=C/C(C)=C/C=C/C(C)=C/C=C/C=C(C)/C=C/C=C(C)/C=C/C2=C(C)CCCC2(C)C)C(C)(C)CCC1 | > 4 mM (inactive)
37 | Cc1cc(C)nc(Nc2n[nH]c(Cc3ccccc3)n2)n1 | > 4 mM (inactive)
38 | Cc1nc(NC(=O)c2cccnc2)ccc1Br | > 4 mM (inactive)
39 | Cc1onc(-c2ccccc2)c1C(=O)O | > 4 mM (inactive)
40 | Cc1cc(C(=O)O)n[nH]1 | > 4 mM (inactive)
41 | O=c1oc(-c2ccccc2)nc2c1cnn2-c1ccccc1 | > 4 mM (inactive)
42 | COc1ccc2c(c1OC)C(=O)N(c1ncn[nH]1)C2 | > 4 mM (inactive)
43 | N#Cc1cc2c(nc1SCc1ccncc1)CCC2 | > 4 mM (inactive)
44 | CC(C)(C)c1cc(NC(=O)c2cccnc2)no1 | > 4 mM (inactive)
45 | c1cc(CNc2ccc3c(c2)OCCO3)ccn1 | > 4 mM (inactive)
46 | CN(C)Cc1c(N)cccc1O | > 4 mM (inactive)

Row | Compound | Kd
47 | Cc1nc(-c2cccc(-c3noc(C)n3)c2)no1 | > 4 mM (inactive)
48 | Nc1nc2c3ccccc3nc(Cc3ccccc3)n2n1 | > 4 mM (inactive)
49 | Cc1cc(=O)oc2c1c(C)nn2CN1CCN(C)CC1 | > 4 mM (inactive)
50 | CS(=O)(=O)NC1CCN(Cc2ccccc2)CC1 | > 4 mM (inactive)
51 | COc1cccc(NC(=O)c2cccs2)c1 | > 4 mM (inactive)
52 | O=C(O)Cn1cc(C(=O)C2CC2)c2ccccc21 | > 4 mM (inactive)
53 | COC1=C(OC)C(=O)C(C/C=C(\C)CC/C=C(\C)CC/C=C(\C)CC/C=C(/C)CC/C=C(\C)CC/C=C(\C)CC/C=C(\C)CC/C=C(\C)CC/C=C(\C)CCC=C(C)C)=C(C)C1=O | > 4 mM (inactive)
54 | O=C1NC2NC(=O)N(c3ccccc3)C2N1 (centres undefined) | > 4 mM (inactive)
55 | CCOc1ccc(C(=O)c2ccc(OC)c(O)c2O)cc1 | > 4 mM (inactive)
56 | NC(C(=O)O)C(O)C(=O)O (centres undefined) | > 4 mM (inactive)
57 | O=C(NC(O)C(=O)c1ccccc1)c1ccco1 (centres undefined) | > 4 mM (inactive)
58 | Nc1nnc(COc2cccc(C(F)(F)F)c2)s1 | > 4 mM (inactive)
59 | CC1SC(=NC(=O)c2ccncc2)NC1=O (centres undefined) | > 4 mM (inactive)
60 | Cc1csc(CCc2nc(C)cs2)n1 | > 4 mM (inactive)
61 | CC(=O)Nc1ccc(N(C)C(C)=O)cc1 | > 4 mM (inactive)
62 | C=CCCCCCCCCCCCC(O)CC(O)CO (centres undefined) (tested in a mixture with another compound) | > 4 mM (inactive)
63 | C/C=C(\C)c1nnc(NC(=O)c2ccco2)s1 | > 4 mM (inactive)
64 | CC1CCC(N2CCN(c3ncccn3)CC2)CC1 (centres undefined) | > 4 mM (inactive)
65 | Cc1ccc(SCc2cc(=O)n3[nH]cnc3n2)cc1 | > 4 mM (inactive)
66 | O=C(NCc1ccccn1)c1ccccc1Cl | > 4 mM (inactive)
67 | c1cncc(C(N2CCOCC2)N2CCOCC2)c1 | > 4 mM (inactive)
68 | CN(C(=O)NC1CCS(=O)(=O)C1)C1CCCCC1 (centres undefined) | > 4 mM (inactive)
69 | CNC(=O)COc1cccc2c1CCNC2=O | > 4 mM (inactive)

Row | Compound | Kd
70 | Cc1cc(C(=O)Nc2ccon2)cs1 | > 4 mM (inactive)
71 | C=CC(C)(O)CC/C=C(\C)CCC=C(C)C (centres undefined) | > 4 mM (inactive)
72 | O=C1C2CC=CCC2C(=O)N1c1ccccc1 (centres undefined) | > 4 mM (inactive)
73 | CC(CC(=O)O)n1cccn1 (centres undefined) | > 4 mM (inactive)
74 | CC(=O)NC(=S)Nc1ccccc1C(N)=O | > 4 mM (inactive)
75 | CC(C)=CCOc1c2occc2cc2ccc(=O)oc12 | > 4 mM (inactive)
76 | C[C@H]1CCCC(=O)CCC/C=C/c2cc(O)cc(O)c2C(=O)O1 | > 4 mM (inactive)
77 | O=C1C2C3C=CC(C3)C2C(=O)N1c1nccs1 (centres undefined) | > 4 mM (inactive)
78 | COc1cccc(NC(=O)c2ncn[nH]2)c1 | > 4 mM (inactive)
79 | Cc1cc(-c2ccc(Cl)cc2)n2nc(N)nc2n1 | > 4 mM (inactive)
80 | O=C(CC1CCCCC1)N1CCN(c2ccccn2)CC1 | > 4 mM (inactive)
81 | COc1ccccc1CNc1nc2nc(C)cc(=O)n2[nH]1 | > 4 mM (inactive)
82 | COc1nc(-c2ccccc2)ccc1-c1noc(C)n1 | > 4 mM (inactive)
83 | O=C(CO)N/N=C/c1ccccc1F | > 4 mM (inactive)
84 | O=C1C2CCCCC2C(=O)N1Cc1cccnc1 (centres undefined) | > 4 mM (inactive)
85 | C1CCN2C[C@@H]3C[C@H](CN4CCCC[C@@H]34)[C@H]2C1 | > 4 mM (inactive)
86 | COC(=O)c1ccccc1N(C)S(C)(=O)=O | > 4 mM (inactive)
87 | O=C(O)CS(=O)(=O)c1ccccc1[N+](=O)[O-] | > 4 mM (inactive)
88 | Cc1c(C)n2c(SCC(N)=O)nnc2[nH]c1=O | > 4 mM (inactive)
89 | Cc1nc(-c2ccc(C(=O)O)s2)cs1 | > 4 mM (inactive)
90 | Cc1c(N=Cc2ccco2)c(=O)n(-c2ccccc2)n1C | > 4 mM (inactive)
91 | O=c1/c(=C\c2cccnc2)sc2nc3ccccc3n12 | > 4 mM (inactive)
92 | O=C(O)C1(S(=O)(=O)c2ccccc2)CC1 | > 4 mM (inactive)

Row | Compound | Kd
93 | O=C(CSc1cccc2cccnc12)N1CCCC1 | > 4 mM (inactive)
94 | COCc1cc(Cl)nc(-c2csc(C)n2)n1 | > 4 mM (inactive)
95 | CS(C)=C1C(=O)NC(=O)N(Cc2ccc(F)cc2)C1=O | > 4 mM (inactive)
96 | COc1ccc(C(=O)NC2=NCCS2)cc1OC | > 4 mM (inactive)
97 | CN1C(=O)CC[C@H]1c1cccnc1 | > 4 mM (inactive)
98 | Cc1nc2c(=O)[nH]c3ccccc3c2o1 | > 4 mM (inactive)
99 | CC1(C)SCC(C(=O)O)N1C=O (centres undefined) | > 4 mM (inactive)
100 | NC(=O)Cn1nc(-c2ccc(F)cc2)ccc1=O | > 4 mM (inactive)
101 | COc1cccc(NC(=O)c2ocnc2C)c1 | > 4 mM (inactive)
102 | Cc1nn(-c2ccccc2)nc1CN | > 4 mM (inactive)
103 | O=C1CSC(=O)N1CN1CCCC1 | > 4 mM (inactive)
104 | COc1ccc([C@H]2Oc3c(I)c(OC)cc(OC)c3C[C@@H]2O)cc1OC | > 4 mM (inactive)
105 | NC(=O)CCn1c(=O)oc2ccccc21 | > 4 mM (inactive)
106 | Fc1cccc(Cl)c1CN1CCNCC1 | > 4 mM (inactive)
107 | CS(=O)(=O)N1CCN(C(=O)c2ccccc2)CC1 | > 4 mM (inactive)
108 | COC(=O)c1cccc2cc[nH]c12 | > 4 mM (inactive)
109 | CC(=O)Nc1ccc(C(=O)NC2CCSC2=O)cc1 (centres undefined) | > 4 mM (inactive)
110 | NCc1ccc2c(c1)OCCCO2 | > 4 mM (inactive)
111 | CC1(C)Cc2nc(N3CCOCC3)c(C#N)cc2CO1 | > 4 mM (inactive)
112 | COc1ccc(-c2cc(=O)c3c(O)cc(O)c(-c4cc(-c5cc(=O)c6c(O)cc(O)cc6o5)ccc4OC)c3o2)cc1 | > 4 mM (inactive)
113 | COc1ccc(C)cc1S(=O)(=O)N1CCCCC1 | > 4 mM (inactive)
114 | O=c1[nH]cc(CN2CCOCC2)c(=O)[nH]1 | > 4 mM (inactive)

— PubChem BioAssay AID1648 (Sanford-Burnham Center for Chemical Genomics, 2009)
